Experimental findings from US10945427B2, “Trehalose and dextran-containing solution for transplanting mammalian cells” (OTSUKA PHARMACEUTICAL FACTORY, INC., priority 2013, dated 2021) are described below.

This assay has as its system Human mesenchymal stem cells from bone marrow [hMSC-BM]. Nature of the assay: Cell survival rate of hMSC-BM preserved in solution for cell transplantation (Trypan blue). Conditions: hMSC-BM preserved for 14 days; saccharide-containing Lactec injection without trehalose or dextran. It is filed as cell-based. The procedure:
Human mesenchymal stem cells from bone marrow [hMSC-BM] (from Lonza Co., Ltd.) were prepared according the procedures described in [1] to [8] below and used in the present experiment.
[1] hMSC-BM were cultured in a 5% CO2 incubator at 37° C. in the presence of a medium kit specific for human mesenchymal stem cells (from Lonza Co., Ltd.) (hereinafter referred to as “MSC medium”) using a 75-cm^2 flask. The state of the cells was observed under a microscope, and culture was performed until a confluent state of about 80% was reached.
[2] The […] was removed using an aspirator, and hMSC-BM were rinsed with 8 mL/flask of PBS (from Invitrogen Co., Ltd.).
[4] Swing was carried out in a slow manner while hMSC-BM were observed under a microscope until about 90% thereof were detached.
Centrifugation was carried out at 600×g and 25° C. for 5 minutes.
[7] The MSC medium as the supernatant was removed using an aspirator, and 4 mL/flask of PBS (from Invitrogen Co., Ltd.) was added, followed by suspending an hMSC-BM pellet (precipitate).
[8] 10 μL of the hMSC-BM suspension was taken; the number of the cells was measured using a cell counter; and PBS (from Invitrogen Co., Ltd.) was added thereto to 5×10^5 cells/mL, which was then cooled with ice.
[1] The hMSC-BM suspension prepared in the step [7] of the “1-1-3 Preparation of Mammalian Cell” described above was dispensed into a 15-mL conical centrifuge tube using […] (100 to 1,000 μL) and centrifuged at 600×g and 25° C. for 5 minutes.
[2] The supernatant after centrifugation treatment was aspirated/removed, and the resultant was suspended in each of the 11 solutions for cell transplantation and then preserved in a refrigerator (under conditions of 4° C.) for […]. To measure the cell survival rate before preservation, the supernatant after centrifugation treatment was aspirated/removed, and the resultant was then suspended in PBS (from Invitrogen Co., Ltd.), immediately followed by taking a portion (20 μL) of the suspension, mixing the portion with 20 μL of Trypan blue stain solution (from Gibco Co., Ltd.), and then measuring the total number of the cells and the number of dead cells using a cell counter under a microscope to evaluate the rate of living cells (see “P” in FIG. 1).
[3] After preserving hMSC-BM in the solution for cell transplantation for 14 days, stirring (5 times pipetting at a liquid volume of 500 μL) was gently performed in a state in which the end of a tip was inserted to a position visually at on the order of 5 mm from the bottom to make cells in a suspended state, and a portion (20 μL) of the suspension was taken into a 1.5-mL microtube, mixed with 20 μL of Trypan blue stain solution (from Gibco Co., Ltd.), and then measured for the total number of the cells and the number of dead cells using a cell counter under a microscope to evaluate the rate of living cells.
With `OC[C@H]1O[C@@H](O[C@H]2[C@H](O)[C@@H](O)C(O)O[C@@H]2CO)[C@H](O)[C@@H](O)[C@H]1O` (stereo partly drawn) [lactose], the “effect of saccharide used alone on cell death, FIG. 7” value (“effect of saccharide used alone” below) is given as “had not the effect of suppressing cell death”.
Regarding `OC[C@H]1O[C@H](O[C@H]2[C@H](O)[C@@H](O)[C@H](O)O[C@@H]2CO)[C@H](O)[C@@H](O)[C@@H]1O` [maltose], the “effect of saccharide used alone” value is “had not the effect of suppressing cell death”.
The entry for `OC[C@@H](O)[C@@H](O)[C@H](O)[C@H](O)CO` [mannitol] is “had not the effect of suppressing cell death”.
Consider `OC[C@H]1O[C@H](OC[C@H]2O[C@H](O[C@]3(CO)O[C@H](CO)[C@@H](O)[C@@H]3O)[C@H](O)[C@@H](O)[C@@H]2O)[C@H](O)[C@@H](O)[C@H]1O` [raffinose], for which the “effect of saccharide used alone” value is reported as “had not the effect of suppressing cell death”.
In the case of `OC[C@@H](O)[C@@H](O)[C@H](O)[C@@H](O)CO` [sorbitol] it was “had not the effect of suppressing cell death”.
Regarding `OC[C@H]1O[C@@](CO)(O[C@H]2O[C@H](CO)[C@@H](O)[C@H](O)[C@H]2O)[C@@H](O)[C@@H]1O` [sucrose], the “effect of saccharide used alone” value is “had not the effect of suppressing cell death”.
